# Where a name gives a salt, the structure may show the parent alone.
# Columns and labels:
# Type in all cases: in vivo, BALB/c nude mice
# [1] = tested on: 4T1 cells, breast cancer cells; experiment: Tumor volume in 4T1 tumor-bearing mice; conditions: day 18 of administration; intraperitoneal; MET 250, 2DG 500, IP6 500, Ins 500 mg/kg (four-combination: IP6 250 + Ins 250 mg/kg); control 1486.8±67.0; mean±SD
# Experimental: (§1) Five-week-old, female specific pathogen free BALB/c nude mice were purchased and used from Orient Bio Co., Ltd. After quarantine and adaptation for one week, healthy animals without weight loss were selected and used in the test. The test animals were raised in a breeding environment set at a temperature of 23±3° C., a relative humidity of 50±10%, the ventilation number of 10 to 15 times/hour, lighting time of 12 hours (08:00 to 20:00), and illuminance of 150 to 300 Lux. During a pre-test period, the test animals were allowed to freely consume solid feed for the test animals (Cargill Agripurina Co., Ltd.) and drinking water.
# (§2) After an adaptation period for one week, in BALB/c nude mice, 4T1 cells (1×10 ^5 cells/mouse), breast cancer cells, were injected to the left breast adipose tissues of the test animals, and then the tumor tissues were visually observed. When the tumor tissue size of the test animals was about 100 mm ^3, the test animals were divided into 9 test groups based on a randomized block design. That is, the 9 test groups were classified into a control group, a MET group (MET 250 mg/kg), a 2DG group (2DG 500 mg/kg), an Ins group (Ins 500 mg/kg), a IP6 group (IP6 500 mg/kg), a MET+2DG group (MET 250 mg/kg+2DG 500 mg/kg), a MET+2DG+Ins group (MET 250 mg/kg+2DG 500 mg/kg+Ins 500 mg/kg), a MET+2DG+IP6 group (MET 250 mg/kg+2DG 500 mg/kg+IP6 500 mg/kg), a MET+2DG+IP6+Ins group (MET 250 mg/kg+2DG 500 mg/kg+IP6 250 mg/kg+Ins 250 mg/kg), and each test group used 10 test animals. The test substance was dissolved in distilled water and intraperitoneally administered at fixed time for 18 days.
# The body weight of the test animal during the test period was measured at a fixed time once a week from the test substance administration date. A tumor volume was measured by using a digital caliper every three days, the length and width of the tumor were measured, and the tumor volume was calculated by substituting the following Equation. Tumor volume (mm^3)=(width^2×length)/2
# [2] = tested on: 4T1 cells, breast cancer cells; experiment: Tumor weight in 4T1 tumor-bearing mice; conditions: day 19 of administration; intraperitoneal; MET 250, 2DG 500, IP6 500, Ins 500 mg/kg (four-combination: IP6 250 + Ins 250 mg/kg); control 1.244±0.22; mean±SD
# Experimental: as §1, §2
# […] The blood was placed in a serum separate tube (Becton Dickinson) and left at room temperature for 30 minutes and centrifuged at 3,000 rpm for 20 minutes to isolate serum and the isolated serum was stored at −70° C. until analysis. […] Tumors were weighed and some were fixed in 10% neutral buffered formalin (NBF, Sigma-Aldrich Co.) and embedded in paraffin to perform tissue immunostaining. The lung was fixed with a Bouin's solution (Sigma-Aldrich Co.), and the tumor nodule metastasized to the lung was observed and a lung metastasis rate was examined.
# [3] = tested on: 4T1 cells, breast cancer cells; experiment: Incidence of lung metastasis in 4T1 tumor animal model; conditions: 10 animals per group; intraperitoneal; control 100%
# Experimental: as §1, §2
# After 14 days of administration of the test substance, the test animals were anesthetized using an anesthetic made by diluting tribromoethanol with tert-amyl alcohol and the blood was collected from the orbit. The blood was placed in a serum separate tube (Becton Dickinson) and left at room temperature for 30 minutes and centrifuged at 3,000 rpm for 20 minutes to isolate serum and the isolated serum was stored at −70° C. until analysis. After taking the blood from the test animals, the tumor was extracted and weighed. Tumors were weighed and some were fixed in 10% neutral buffered formalin (NBF, Sigma-Aldrich Co.) and embedded in paraffin to perform tissue immunostaining. The lung was fixed with a Bouin's solution (Sigma-Aldrich Co.), and the tumor nodule metastasized to the lung was observed and a lung metastasis rate was examined.
Structure (SMILES),tumor volume [1],tumor weight [2],incidence of lung metastasis [3]
"O=P(O)(O)O[C@H]1[C@H](OP(=O)(O)O)[C@@H](OP(=O)(O)O)[C@H](OP(=O)(O)O)[C@@H](OP(=O)(O)O)[C@H]1OP(=O)(O)O [IP6, inositol hexaphosphate]",1108.5±66.3 mm^3,0.874 ± 0.18 g,90%
"O[C@H]1[C@H](O)[C@@H](O)[C@H](O)[C@@H](O)[C@H]1O [Ins, myo-inositol]",1190.1±67.3 mm^3,0.904 ± 0.20 g,90%
"CN(C)C(=N)NC(=N)N [MET, Metformin HCl]",1400.5±58.6 mm^3,1.134 ± 0.15 g,100%
"OCC1O[C@H](O)C[C@@H](O)[C@@H]1O (mixture of isomers) [2DG, 2-deoxy-D-glucose]",1350.3±55.2 mm^3,1.092 ± 0.18 g,100%

# Reference: patent US12370155B2, “Anticancer composition” (NOAHM INC., priority 2018, dated 2025)
